Laboratory results published in patent US20080039438A1, “1B-Methylcarbapenem Derivative and Process for the Preparation Thereof” (Korea Institute of Science and Technology, priority 2004, published 2008).
Values after ≈ are worked out from the molar mass of the structure shown.

Experiments:
Assay type in all cases: cell-based
[1] = tested on: Methicillin-sensitive Staphylococcus aureus; test: MIC against clinically isolated aerobic Gram-positive strains; conditions: 33 strains
Staphylococcus coagulase = test: as above; conditions: Staphylococcus
Streptococcus pyogenes = test: as above; conditions: 15 strains
Streptococcus agalactiae = test: as above; conditions: 15 strains
Streptococcus pneumoniae = test: as above; conditions: 22 strains
Enterococcus faecalis = test: as above; conditions: 30 strains
Enterococcus faecium = test: as above; conditions: clinically isolated Enterococcus faecium, 29 strains
Moraxella catarrhalis = test: MIC against clinically isolated aerobic Gram-negative strains; conditions: 24 strains
Haemophilus influenzae = test: as above; conditions: 24 strains
Escherichia coli = test: as above; conditions: 30 strains
Citrobacter freundii = test: as above; conditions: 14 strains
Klebsiella pneumoniae = test: as above; conditions: 30 strains
Klebsiella oxytoca = test: as above; conditions: 15 strains
Enterobacter cloacae = test: as above; conditions: 29 strains
Enterobacter aerogenes = test: as above; conditions: 14 strains
Serratia marcescens = test: as above; conditions: 14 strains
Proteus mirabilis = test: as above; conditions: 15 strains
Proteus vulgaris = test: as above; conditions: 15 strains
Morganella morganii = test: as above; conditions: 15 strains
Providentia sp. = test: as above; conditions: 13 strains
Acinetobacter baumannii = test: as above; conditions: 30 strains
Pseudomonas aeruginosa = test: as above; conditions: 60 strains
Peptostreptococcus spp. = test: MIC against clinically isolated anaerobic Gram-positive strains; conditions: 27 strains
Clostridium perfringens = test: microbe, parasite or virus in culture
Clostridium difficile = test: MIC against clinically isolated anaerobic Gram-positive strains; conditions: 15 strains
Method: The in vitro antibacterial activities of the sodium 3-carboxylate compound of the present invention prepared in the above Example were measured against standard strains (Table 1), clinically isolated aerobic Gram-positive strains (Table 2), clinically isolated aerobic Gram-negative strains (Table 3), clinically isolated anaerobic Gram-positive strains (Table 4) and clinically isolated anaerobic Gram-negative strains (Table 5) using Gram-positive bacteria such as Streptococcus and Staphylococcus, Gram-negative bacteria such as Escherichia, Salmonella, Krebsiella and Enterobacter. Imipenem (IPM), meropenem (MPM) and ertapenem (EPM) were used as control groups.
The results are shown in Tables 1 to 5, and MIC50 and MIC90 represent the concentrations at which the test strain's growth was inhibited to the extents of 50% and 90%, respectively.

Bacteroides fragilis = test: MIC against clinically isolated anaerobic Gram-negative strains; conditions: 34 strains
[2] = tested on: Bacteroides thetaiotaomicron; test: as above
Bacteroides spp. = test: as above; conditions: 11 strains

C[C@@H](O)[C@H]1C(=O)N2C(C(=O)O)=C(S[C@@H]3CN[C@H](C(=O)Nc4cccc(C(=O)O)c4)C3)[C@H](C)[C@H]12 [EPM, ertapenem]
MIC50 [1]: 0.25 µg/mL (≈ 0.526 µM)
MIC90 [1]: 0.25 µg/mL (≈ 0.526 µM)
MIC Range [1]: 0.25 to 0.5 µg/mL
MIC50 (Staphylococcus coagulase): 0.25 µg/mL (≈ 0.526 µM)
MIC90 (Staphylococcus coagulase): 0.5 µg/mL (≈ 1.05 µM)
MIC50 (Streptococcus pyogenes): 0.15 µg/mL (≈ 0.315 µM)
MIC90 (Streptococcus pyogenes): 0.15 µg/mL (≈ 0.315 µM)
MIC Range (Streptococcus pyogenes): 0.008 to 0.015 µg/mL
MIC50 (Streptococcus agalactiae): 0.06 µg/mL (≈ 0.126 µM)
MIC90 (Streptococcus agalactiae): 0.06 µg/mL (≈ 0.126 µM)
MIC Range (Streptococcus agalactiae): 0.03 to 0.06 µg/mL
MIC50 (Streptococcus pneumoniae): 0.5 µg/mL (≈ 1.05 µM)
MIC90 (Streptococcus pneumoniae): 1 µg/mL (≈ 2.1 µM)
MIC Range (Streptococcus pneumoniae): 0.008 to 1 µg/mL
MIC50 (Enterococcus faecalis): 16 µg/mL (≈ 33.6 µM)
MIC90 (Enterococcus faecalis): 32 µg/mL (≈ 67.3 µM)
MIC Range (Enterococcus faecalis): 4 to 64 µg/mL
MIC Range (Enterococcus faecium): 32 to 128 µg/mL
MIC50 (Enterococcus faecium; read-out: MIC50): 128 µg/mL (≈ 269 µM)
MIC90 (Enterococcus faecium; read-out: MIC90): 128 µg/mL (≈ 269 µM)
MIC50 (Moraxella catarrhalis): 0.015 µg/mL (≈ 0.0315 µM)
MIC90 (Moraxella catarrhalis): 0.03 µg/mL (≈ 0.0631 µM)
MIC Range (Moraxella catarrhalis): 0.008 to 0.12 µg/mL
MIC50 (Haemophilus influenzae): 0.12 µg/mL (≈ 0.252 µM)
MIC90 (Haemophilus influenzae): 0.5 µg/mL (≈ 1.05 µM)
MIC Range (Haemophilus influenzae): 0.12 to 1 µg/mL
MIC50 (Escherichia coli): 0.008 µg/mL (≈ 0.0168 µM)
MIC90 (Escherichia coli): 0.12 µg/mL (≈ 0.252 µM)
MIC Range (Escherichia coli): 0.008 to 4 µg/mL
MIC50 (Citrobacter freundii): 0.008 µg/mL (≈ 0.0168 µM)
MIC90 (Citrobacter freundii): 0.25 µg/mL (≈ 0.526 µM)
MIC Range (Citrobacter freundii): 0.008 to 0.5 µg/mL
MIC50 (Klebsiella pneumoniae): 0.03 µg/mL (≈ 0.0631 µM)
MIC90 (Klebsiella pneumoniae): 0.5 µg/mL (≈ 1.05 µM)
MIC Range (Klebsiella pneumoniae): 0.008 to 1 µg/mL
MIC50 (Klebsiella oxytoca): 0.008 µg/mL (≈ 0.0168 µM)
MIC90 (Klebsiella oxytoca): 0.008 µg/mL (≈ 0.0168 µM)
MIC Range (Klebsiella oxytoca): 0.008 to 0.25 µg/mL
MIC50 (Enterobacter cloacae): 0.12 µg/mL (≈ 0.252 µM)
MIC90 (Enterobacter cloacae): 2 µg/mL (≈ 4.21 µM)
MIC Range (Enterobacter cloacae): 0.015 to 2 µg/mL
MIC Range (Enterobacter aerogenes): 0.008 to 0.5 µg/mL
MIC50 (Enterobacter aerogenes; Klebsiella aerogenes): 0.06 µg/mL (≈ 0.126 µM)
MIC90 (Enterobacter aerogenes; Klebsiella aerogenes): 0.5 µg/mL (≈ 1.05 µM)
MIC50 (Serratia marcescens): 0.06 µg/mL (≈ 0.126 µM)
MIC90 (Serratia marcescens): 16 µg/mL (≈ 33.6 µM)
MIC Range (Serratia marcescens): 0.015 to 16 µg/mL
MIC50 (Proteus mirabilis): 0.008 µg/mL (≈ 0.0168 µM)
MIC90 (Proteus mirabilis): 0.015 µg/mL (≈ 0.0315 µM)
MIC Range (Proteus mirabilis): 0.008 to 0.015 µg/mL
MIC50 (Proteus vulgaris): 0.015 µg/mL (≈ 0.0315 µM)
MIC90 (Proteus vulgaris): 0.015 µg/mL (≈ 0.0315 µM)
MIC Range (Proteus vulgaris): 0.008 to 0.03 µg/mL
MIC50 (Morganella morganii): 0.008 µg/mL (≈ 0.0168 µM)
MIC90 (Morganella morganii): 0.03 µg/mL (≈ 0.0631 µM)
MIC Range (Morganella morganii): 0.008 to 0.03 µg/mL
MIC50 (Providentia sp.): 0.03 µg/mL (≈ 0.0631 µM)
MIC90 (Providentia sp.): 16 µg/mL (≈ 33.6 µM)
MIC Range (Providentia sp.): 0.008 to 16 µg/mL
MIC50 (Acinetobacter baumannii): 8 µg/mL (≈ 16.8 µM)
MIC90 (Acinetobacter baumannii): 64 µg/mL (≈ 135 µM)
MIC Range (Acinetobacter baumannii): 4 to 128 µg/mL
MIC50 (Pseudomonas aeruginosa): 32 µg/mL (≈ 67.3 µM)
MIC90 (Pseudomonas aeruginosa): 128 µg/mL (≈ 269 µM)
MIC Range (Pseudomonas aeruginosa): 1 to 128 µg/mL
MIC50 (Peptostreptococcus spp.): 0.12 µg/mL (≈ 0.252 µM)
MIC90 (Peptostreptococcus spp.): 4 µg/mL (≈ 8.41 µM)
MIC Range (Peptostreptococcus spp.): 0.06 to 4 µg/mL
MIC50 (Clostridium perfringens; Clostridium perfringens): 0.06 µg/mL (≈ 0.126 µM)
MIC90 (Clostridium perfringens; Clostridium perfringens): 0.12 µg/mL (≈ 0.252 µM)
MIC Range (Clostridium perfringens; clinically isolated anaerobic Clostridium perfringens, 13 strains): 0.06 to 0.12 µg/mL
MIC Range (Clostridium difficile): 4 to 8 µg/mL
MIC50 (Clostridium difficile; Clostridioides difficile): 4 µg/mL (≈ 8.41 µM)
MIC90 (Clostridium difficile; Clostridioides difficile): 8 µg/mL (≈ 16.8 µM)
MIC50 (Bacteroides fragilis): 0.25 µg/mL (≈ 0.526 µM)
MIC90 (Bacteroides fragilis): 1 µg/mL (≈ 2.1 µM)
MIC Range (Bacteroides fragilis): 0.12 to 4 µg/mL
MIC50 ([2]; Bacteroides thetaiotaomicron): 2 µg/mL (≈ 4.21 µM)
MIC90 ([2]; Bacteroides thetaiotaomicron): 2 µg/mL (≈ 4.21 µM)
MIC Range ([2]; clinically isolated anaerobic Bacteroides thetaiotaomicron, 15 strains): 0.25 to 8 µg/mL
MIC50 (Bacteroides spp.): 1 µg/mL (≈ 2.1 µM)
MIC90 (Bacteroides spp.): 2 µg/mL (≈ 4.21 µM)
MIC Range (Bacteroides spp.): 0.5 to 2 µg/mL
